Measurements from patent US20090068103A1, “APTAMERS LABELED WITH 68GA” (priority 2006, published 2009).
Read-outs that look alike come from different tables or passages of the source.

Key:
[1] = target: T1, human tenascin-C (Homo sapiens, UniProt P24821); test: Competition filter binding assay against 99mTc-TTA1-MAG2; settings: 2 nM human TN-C, 1 nM 99mTc-TTA1-MAG2, competed with unlabeled aptamer, 37° C., 15 min
Protocol: A competition filter binding assay was carried out in order to determine binding constants (EC50). Samples of 2 nM human TN-C were incubated with 1 nM ^99mTc-TTA1-MAG2 in TBSMC buffer (20 mM Tris, pH 7.4; 137 mM NaCl; 1 mM CaCl2; 1 mM MgCl2) and the binding competed with varying concentrations of unlabeled aptamer (see pipetting scheme in FIG. 9.1). Incubation was carried out at 37° C. for 15 min. Subsequently, the solutions were pipetted on a Minifold Device equipped with a supported nitrocellulose membrane and Whatman filter paper and were washed with buffer using vacuum. Residual radioactivity on the filter due to tenascin-C bound labeled aptamer was quantified using a Phosphorimager. EC50 values were calculated using GraphPadPrism 3.02 (San Diego, Calif., USA) plotting one-side competition non-linear regression curves.

[2] = target: T1, human tenascin-C; settings: cited from earlier work

T1 sequence (P24821 23-2201): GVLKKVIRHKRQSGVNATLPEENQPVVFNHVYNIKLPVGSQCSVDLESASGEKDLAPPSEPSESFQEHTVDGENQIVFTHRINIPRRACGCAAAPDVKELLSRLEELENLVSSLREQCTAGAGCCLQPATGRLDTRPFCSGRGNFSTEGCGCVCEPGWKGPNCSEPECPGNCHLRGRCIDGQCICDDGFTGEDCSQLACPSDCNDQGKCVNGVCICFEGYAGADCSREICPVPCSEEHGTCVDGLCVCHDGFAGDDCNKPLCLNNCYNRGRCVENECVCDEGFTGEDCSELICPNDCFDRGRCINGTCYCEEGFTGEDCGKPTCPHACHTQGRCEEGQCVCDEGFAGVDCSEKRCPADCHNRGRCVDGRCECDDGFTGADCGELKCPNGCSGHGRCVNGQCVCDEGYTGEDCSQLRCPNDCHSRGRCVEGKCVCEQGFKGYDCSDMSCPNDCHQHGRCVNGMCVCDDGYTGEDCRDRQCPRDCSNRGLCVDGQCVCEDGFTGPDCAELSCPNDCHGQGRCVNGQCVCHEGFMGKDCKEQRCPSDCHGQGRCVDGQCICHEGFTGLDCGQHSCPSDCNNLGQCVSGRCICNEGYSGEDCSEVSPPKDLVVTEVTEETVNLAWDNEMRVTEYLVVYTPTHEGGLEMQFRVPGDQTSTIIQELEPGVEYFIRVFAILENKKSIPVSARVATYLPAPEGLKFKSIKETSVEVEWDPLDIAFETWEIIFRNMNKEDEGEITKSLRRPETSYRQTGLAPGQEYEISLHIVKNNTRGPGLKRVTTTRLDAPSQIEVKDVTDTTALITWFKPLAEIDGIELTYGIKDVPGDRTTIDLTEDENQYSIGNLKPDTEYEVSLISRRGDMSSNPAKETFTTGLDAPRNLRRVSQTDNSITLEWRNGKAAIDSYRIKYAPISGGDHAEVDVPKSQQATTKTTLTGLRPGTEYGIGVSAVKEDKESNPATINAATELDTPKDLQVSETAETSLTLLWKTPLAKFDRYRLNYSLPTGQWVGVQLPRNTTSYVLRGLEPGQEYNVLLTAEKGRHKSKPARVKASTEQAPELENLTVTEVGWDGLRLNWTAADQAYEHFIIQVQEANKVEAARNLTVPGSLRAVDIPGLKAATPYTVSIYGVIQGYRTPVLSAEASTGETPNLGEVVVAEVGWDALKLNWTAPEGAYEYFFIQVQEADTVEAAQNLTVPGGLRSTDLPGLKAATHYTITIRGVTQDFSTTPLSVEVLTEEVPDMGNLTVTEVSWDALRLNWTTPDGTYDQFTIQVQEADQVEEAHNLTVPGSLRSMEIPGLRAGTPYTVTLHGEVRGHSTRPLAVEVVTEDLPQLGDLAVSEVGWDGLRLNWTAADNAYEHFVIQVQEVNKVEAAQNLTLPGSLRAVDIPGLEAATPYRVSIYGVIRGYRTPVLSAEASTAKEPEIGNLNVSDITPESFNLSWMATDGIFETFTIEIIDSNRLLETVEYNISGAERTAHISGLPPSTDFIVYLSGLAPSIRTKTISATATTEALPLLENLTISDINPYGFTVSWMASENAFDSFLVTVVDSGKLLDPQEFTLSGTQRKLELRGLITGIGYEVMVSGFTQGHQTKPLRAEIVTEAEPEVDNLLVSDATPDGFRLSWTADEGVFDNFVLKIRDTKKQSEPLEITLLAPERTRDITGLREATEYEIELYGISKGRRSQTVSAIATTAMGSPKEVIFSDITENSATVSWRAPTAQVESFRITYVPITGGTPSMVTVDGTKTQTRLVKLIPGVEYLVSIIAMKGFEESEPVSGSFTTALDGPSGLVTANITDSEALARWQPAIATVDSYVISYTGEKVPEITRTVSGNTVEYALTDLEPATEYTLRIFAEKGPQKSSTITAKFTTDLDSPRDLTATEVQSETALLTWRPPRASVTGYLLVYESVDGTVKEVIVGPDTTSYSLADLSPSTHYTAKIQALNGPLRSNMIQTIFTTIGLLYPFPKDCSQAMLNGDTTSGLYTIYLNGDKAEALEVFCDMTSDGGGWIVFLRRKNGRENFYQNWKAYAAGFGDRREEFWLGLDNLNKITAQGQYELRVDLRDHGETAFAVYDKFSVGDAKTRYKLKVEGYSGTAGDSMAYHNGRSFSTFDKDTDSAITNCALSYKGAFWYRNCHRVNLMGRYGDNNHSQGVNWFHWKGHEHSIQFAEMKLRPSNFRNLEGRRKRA

Substance	EC50 [1] [µM]	Kd ([2]; final synthetic oligonucleotide, Hicke et al., read-out: KD) [µM]	Kd ([2]; human tenascin-C, read-out: binding affinity KD) [µM]
5′-(aminomodifier C2 dT)-mA mGmGmG mAmGG mAfCmG-(CH2CH2O)6-fCGfU fCGfC fCGfU mAmAfU mGmGmA fUmGfU fUfUfU mGfCfU fCfCfC fUmG-3′-3′-T (chain 1 AGGGAGGACG; chain 2 CGUCGCCGUAAUGGAUGUUUUGCUCCCUG; 2'-OMe and 2'-F mix, some positions unassigned, 5' amino-C2 dT, hexaethylene glycol spacer, 3'-3' dT, further chemistry not given here) [TTA5]	0.039		
5′-LGLGLG LALGmG mAfCrG-(CH2OCH2)6-fCGfU fCGfC fCGfU mAmAfU mGmGmA fUmGfU fUfUfU mGLCLU LCLCLC-(CH2)6NH2-3′ (CGUCGCCGUAAUGGAUGUUUUG; LNA/2'-OMe/2'-F, PEG spacer, 3' aminohexyl, chemistry not fully specified) [TTA7]	0.002		
5′-NH2-C6-O-PO2-O-GGG AGG ACG-(CH2CH2O)6-CGUCGCCGUAAUGGAUGUUUUGCUCCCUG-3′-3′-T (CGUCGCCGUAAUGGAUGUUUUGCUCCCUG; 5' aminohexyl, hexaethylene glycol spacer, 3'-3' inverted dT, chemistry not fully specified) [TTA1]	0.006	0.005	0.005
5′-NH2-C6-O-PO2-O-mGmGmG mAmGG mAfCmG-(CH2CH2O)6-fCGfU fCGfC fCGfU mAmAfU mGmGmA fUmGfU fUfUfU mGfCfU fCfCfC UG-3′-3′-T (CGUCGCCGUAAUGGAUGUUUUGCUCCCUG; 2'-OMe/2'-F, 5' aminohexyl, PEG spacer, 3' inverted dT, chemistry not fully specified) [TTA3]	0.019		
5′-NH2-C6-O-PO2-O-mGmGmG mAmGG mAfCmG-(CH2CH2O)6-fCGfU fCGfC fCGfU mAmAfU mGmGmA fUmGfU fUfUfU mGfCfU fCfCfC UmG-3′-3′-T (CGUCGCCGUAAUGGAUGUUUUGCUCCCUG; 2'-OMe/2'-F, 5' aminohexyl, PEG spacer, 3' inverted dT, chemistry not fully specified) [TTA2]	0.031		
5′-NH2-C6-O-SPO-O-mGmGmG mAmGG mAfCmG-(CH2CH2O)6-fCGfU fCGfC fCGfU mAmAfU mGmGmA fUmGfU fUfUfU mGfCfU fCfCfC fUmG-3′-3′-T (CGUCGCCGUAAUGGAUGUUUUGCUCCCUG; 5' aminohexyl phosphorothioate, 2'-OMe/2'-F, PEG spacer, inverted dT, chemistry not fully specified) [TTA6]	0.014		
5′-mGmGmG mAmGG mAfCmG-(CH2CH2O)6-fCGfU fCGfC fCGfU mAmAfU mGmGmA fUmGfU fUfUfU mGfCfU fC(C6-NH2)CfC-3′-3′-T (CGUCGCCGUAAUGGAUGUUUUGCUC; 2'-OMe/2'-F, internal C6-amine, PEG spacer, 3' inverted dT, chemistry not fully specified) [TTA4]	0.02		
5′-mGmGmG mAmGmG mAfCrG-(CH2OCH2)6-fCGfU fCGfC fCGfU mAmAfU mGmGmA fUmGfU fUfUfU mGmCmU mCmCmC-(CH2)6NH2-3′ (CGUCGCCGUAAUGGAUGUUUUGCUCCC; 2'-OMe/2'-F, PEG spacer, 3' aminohexyl, chemistry not fully specified) [TTA8]	0.014		
